The results in this text go back to patent US11241393B2 (priority 2020, dated 2022).

Read-outs that look alike come from different tables or passages of the source.

A short description of series [1]: in vitro. The conditions noted are these: dog.
A further series has as its system human cytomegalovirus. It counts as cell-based.
In another series the test system is vaccinia virus. It counts as cell-based. The note with it: in vitro, cell culture.
The nature of series [2]: in vitro. The note with it: human.
A short description of series [3]: in vitro. The conditions noted are these: cattle.
Series [4] can be described thus: in vitro.
Series [5] deals with influenza virus A/Aichi/2/68 (H3N2). Briefly: organism not typed. It counts as cell-based. The note with it: for IC50: MDCK.
Series [6] is described as follows: in vitro. The conditions noted are these: human. This is another data set of the same source.
The conditions of series [7]: rat, in vivo.

In turn, `CCCCCCCCCCCCCCCC(=O)O[Si](OC(=O)CCCCCCCCCCCCCCC)(c1ccccc1)c1ccccc1` [Sil 27, Di(hexadecanoyloxy)diphenylsilane] showed a CC50 in “in vitro [1]” of 317 µM. Besides, in the series on human cytomegalovirus, the SI was found to be 30.9 and the “antiviral activity against human cytomegalovirus” value is “marked activity”.
Turning to `CCCCCCCCCCCC[Si](C)(C)O[C@@H]1O[C@H](COC(C)=O)[C@@H](OC(C)=O)[C@H](OC(C)=O)[C@H]1OC(C)=O` [Sil 19, 1-O-Dimethyl(dodecyl)silyl-(2,3,4,6-O-tetraacetyl-b-D-glucopyranoside)], the CC50 in the series on MDCK cells is 65.5 µM. Also, the “antiviral activity against human cytomegalovirus” value with human cytomegalovirus is listed as “Close to borderline effect”.
`CCCCCCCCCCCCCCCCCC[Si](CCCCCCCCCCCCCCCCCC)(OC1OC(COC(C)=O)C(OC(C)=O)C(OC(C)=O)C1OC(C)=O)OC1OC(COC(C)=O)C(OC(C)=O)C(OC(C)=O)C1OC(C)=O` [Sil 15, 1-O-Dioctadecylsilyl-di(2,3,4,6-O-tetraacetyl-b-D-galactopyranoside)]: in the series on human cytomegalovirus (in vitro, cell culture), the “antiviral activity against human cytomegalovirus” value was “Close to borderline effect”.
The compound `CCCCCCCCCCC(=O)O[Si](C)(C)OC(=O)CCCCCCCCCC` [Sil 34, Di(undecanoyloxy)dimethylsilane] registered a CC50 in “in vitro [1]” of 2530 µM. For the same compound, in the series on human cytomegalovirus, the “antiviral activity against human cytomegalovirus” value is reported as “Close to borderline effect”.
For the compound `CCCCCCCCCCCC[Si](C)(C)OC1OC(CO)C(O)C(O)C1O` [Sil 9, Dodecyldimethylsilyl-a-D-glucopyranoside], in the series on vaccinia virus, the “antiviral activity versus vaccinia virus” value was “marked activity”. Further, the CC50 in “in vitro [1]” worked out at 444 µM.
As to `CCCCCCCCCC[Si](C)(C)CCOC1OC(CO)C(O)C(O)C1O` [Sil 2, 2-(Dimethyldecylsilyl)ethyl-b-D-glucopyranoside], the “cytotoxicity (summary in words)” value in the series with MDCK cells, with HEp-2 cells and in the series with CT cells was “wider toxicity” in each case. In addition, the CC50 in the series with MDCK cells (dog) is 18 µM; in “in vitro [2]” it was < 20 µM; in the series “in vitro [3]”, < 20 µM; in “in vitro [4]”, < 20 µM; in the series “in vitro [1]”, < 20 µM. Besides, in the series with human cytomegalovirus, the “antiviral activity against human cytomegalovirus” value is “Close to borderline effect”. This compound also displayed an SI in [5] of 2.43. For the same compound, the “antiviral activity toward influenza virus A(H3N2)” value in series [5] was “marked activity”. Moreover, inhibition in series [5] was half-maximal at 7.38 µM (IC50).
For the compound `CCCC[Si](C)(C)OC1OC(CO)C(O)C(O)C1O` [Sil 7, Butyldimethylsilyl-a-D-galactopyranoside], the CC50 was < 20 µM in “in vitro [6]” and 444 µM in the series “in vitro [1]”. Also, the “antiviral activity against human cytomegalovirus” value with human cytomegalovirus is recorded as “Close to borderline effect”.
`CCCCCCCCCCCC[Si](C)(C)CCOC1OC(CO)C(O)C(O)C1O` [Sil 3, 2-(Dimethyldodecylsilyl)ethyl-b-D-glucopyranoside]: the CC50 is 19.2 µM in the series on MDCK cells (dog), < 20 µM in the series “in vitro [3]”, < 20 µM in “in vitro [4]” and < 20 µM in the series “in vitro [1]”. Moreover, in series [5], the SI is reported as 2.9. Moreover, the “antiviral activity toward influenza virus A(H3N2)” value in [5] is “marked activity”. In addition, the IC50 in [5] came to 6.6 µM.
The compound `CC(N)C12CC3CC(CC(C3)C1)C2` (centres unmarked) [Rimantadine, reference compound] yielded a CC50 in “in vitro [1]” of 94 µM. In series [5], this compound came in with an SI of 3133.0 and an IC50 of 0.03 µM.
Turning to `CCCCCCCCCCCC(=O)O[Si](OC(=O)CCCCCCCCCCC)(c1ccccc1)c1ccccc1` [Sil 25, Di(dodecanoyloxy)diphenylsilane], the CC50 in the series “in vitro [4]” was < 20 µM. For the same compound, the CC50 in the series “in vitro [1]” is 55.9 µM. In [5], the SI stood at 5.82, the “antiviral activity toward influenza virus A(H3N2)” value is listed as “marked activity” and inhibition was half-maximal at 9.6 µM (IC50).
For the compound `N.N.[Cl-].[Cl-].[OH-].[OH-].[Pt+4]` [Standard Cis-Oxoplatin, cis-oxoplatin], the “tissues with highest platinum concentration compared with the other treatment groups” value in series [7] (iv) was “highest platinum concentration in the stomach and the liver”; in series [7] (po), “highest accumulation of platinum in the spleen and lungs”.
`CCCCCCCCCCCCCCCCCC[Si](C)(C)O[C@@H]1O[C@H](COC(C)=O)[C@@H](OC(C)=O)[C@H](OC(C)=O)[C@H]1OC(C)=O` [Sil 20, 1-O-Dimethyl(octadecyl)silyl-(2,3,4,6-O-tetraacetyl-b-D-glucopyranoside)]: the CC50 in the series on MDCK cells was determined as 2530 µM. Further, the “antiviral activity toward the cytomegalovirus” value with human cytomegalovirus is listed as “marked activity”.
